Assay [1] in a line: Examination 7: body weight at 14 days old after GSSG feed until 3, 7 or 14 days old. Type of assay: in vivo, broiler chicks. Conditions: n = 12. As to the method: In each group, 6 males and 6 females were tested. […] The chicks were raised until they became 14 days old, and then, their body weights were measured. The feed composition (ME3,100 kcal/kg, CP21) free of GSSG used in Examination 1 was used for the control group. In the control group the chicks were raised until they became 14 days old and their body weights were measured. In the test groups 1 to 3, a feed composition used as an initial-phase feed composition, for which the level of GSSG to be added was set to 0.05% by mass, is a composition prepared by adding GSSG at 0.05% by mass to a composition (ME3,100 kcal/kg, CP21) containing corn, soybean meal, corn gluten meal, fat and oil, calcium carbonate (powder), tricalcium phosphate, dietary salt, DL-methionine, L-lysine chloride, choline chloride, and vitamins/minerals in accordance with the NRC requirements. […] An ammonium salt was used as GSSG. The GSSG contained 95.6% by mass of oxidized glutathione, and the content of reduced glutathione mixed therein was 0.1% by mass or less.

Assay [2] in a line: Examination 2-2: breeding performance at 40 days old after GSSG prestarter feed. The settings on record: 0.01% by mass GSSG feed for first 72 h, n = 12. Type of assay: in vivo, broiler chicks (Ross 308). As to the method: Thereafter, the composition was replaced by an ordinary feed composition of the same type and the chicks were raised until they became 40 days old. […] Two groups, which were a control group and a GSSG addition group (0.01% by mass) were set. In each group, 6 males and 6 females were tested. Chicks received at 0 day old were fed with a test feed composition (initial-phase feed composition) during 72 hours after the receipt. […] The body weight was measured, and the meat yield and feed conversion ratio were determined. As the initial-phase feed composition, the 0.01% by mass GSSG-containing feed composition used in Examination 1 was used in the GSSG addition group, and the feed composition (ME3,100 kcal/kg, CP21) free of GSSG used in Examination 1 was used for the control group. […] An ammonium salt was used as oxidized glutathione (GSSG). The GSSG contained 95.6% by mass of oxidized glutathione, and the content of reduced glutathione mixed therein was 0.1% by mass or less. […] The term “meat yield” refers to a proportion of meat excluding bones and fats with respect to the body weight. The meat yield can be determining by performing slaughtering and butchering, collecting meat alone, and weighing the collected meat.

We go through one substance from patent publication US20180271930A1, “METHOD FOR RAISING POULTRY” (priority 2015, published 2018).

In the case of oxidized glutathione [GSSG], the 14-day-old weight in assay [1] (0.05% by mass GSSG feed until 3 days old) was determined as 393 ± 17 g; in assay [1] (0.05% by mass GSSG feed until 7 days old), 391 ± 24 g; in assay [1] (0.05% by mass GSSG feed until 14 days old) it was 351 ± 47 g. The same substance gave a Meat yield in assay [2] (40 days old) of 42.1 ± 1.1 % by mass. Further, in assay [2] (40 days old), the Weight is reported as 2214 ± 79 g. The “Feed conversion ratio (mass ratio)” value in assay [2] (until 40 days old) turned out to be 1.52 ± 0.09.
